The structures appear in SMILES notation. Where a name gives a salt, the structure may show the parent alone.

Molecule `c1ccc(N=C(N=C(Nc2ccccc2)c2ccccc2)N2CCCC2)cc1` (as salt: hydrochloride) [Example 1, N-Phenyl-N′-(phenylimino-pyrrolidin-1-yl-methyl)-benzamidine] had a melting point of 246 to 247 °C. Consider `Fc1ccc(NC(=NC(=Nc2ccccc2)N2CCCC2)c2ccccc2)cc1` (as salt: hydrochloride) [Example 2, N-(4-Fluoro-phenyl)-N′-(phenylimino-pyrrolidin-1-yl-methyl)-benzamidine], for which the melting point was 259 to 260 °C (dec.).

The molecule `Cc1ccccc1C(=NC(=Nc1ccccc1)N1CCC(=O)CC1)Nc1ccc(F)cc1` (as salt: hydrochloride) [Example 8, N-(4-Fluoro-phenyl)-2-methyl-N′-[(4-oxo-piperidin-1-yl)-phenylimino-methyl]-benzamidine] came in with a melting point of 234 to 235 °C. With `Cc1cccc(C)c1C(=NC(=Nc1ccccc1)N1CCC(O)CC1)Nc1ccc(F)cc1` (as salt: hydrochloride) [Example 9, N-(4-Fluoro-phenyl)N′-[(4-hydroxy-piperidin-1-yl)-phenylimino-methyl]-2,6-dimethyl-benzamidine] the figure was 163 to 165 °C; with `COc1ccc(NC(=NC(=Nc2ccccc2)N2CCCC2)c2ccccc2)cc1` (as salt: hydrochloride) [Example 15, N-(4-methoxy-phenyl)-N′-(phenylimino-pyrrolidin-1-yl-methyl)-benzamidine], 244 to 245 °C; with `Clc1ccc(NC(=NC(=Nc2ccccc2)N2CCCC2)c2ccccc2)cc1` (as salt: hydrochloride) [Example 16, N-(4-chloro-phenyl)-N′-(phenylimino-pyrrolidin-1-yl-methyl)-benzamidine], 219 to 221 °C. The result for `Cc1ccccc1C(=NC(=Nc1ccccc1)N1CCCC1)Nc1ccccc1` (as salt: hydrochloride) [Example 20, 2-methyl-N-phenyl-N′-(phenylimino-pyrrolidin-1-yl-methyl)-benzamidine] reads 191 to 192 °C; that for `Cc1ccccc1C(=Nc1ccccc1)NC(=Nc1ccccc1)N1CCC(O)CC1` (as salt: hydrochloride) [Example 24, N-[(4-hydroxy-piperidin-1-yl)-phenylimino-methyl]-2-methyl-N′-phenyl-benzamidine], 218 to 220 °C. With `Fc1ccc(N=C(NC(=Nc2ccccc2)c2ccccc2)N2CCCC2)cc1` (as salt: hydrochloride) [Example 25, N-[(4-fluoro-phenylimino)-pyrrolidin-1-yl-methyl]-N′-phenyl-benzamidine] the figure was 242 to 243 °C. Regarding `Cc1ccccc1C(=NC(=Nc1ccccc1)N1CCC(O)CC1)Nc1ccc(F)cc1` (as salt: hydrochloride) [Example 26, N-(4-fluoro-phenyl)-N′-[(4-hydroxy-piperidin-1-yl)-phenylimino-methyl]-2-methyl-benzamidine], the melting point was 228 to 230 °C (dec.). The result for `Fc1ccccc1N=C(NC(=Nc1ccccc1)c1ccccc1)N1CCCC1` (as salt: hydrochloride) [Example 27, N-[(2-fluoro-phenylimino)-pyrrolidin-1-yl-methyl]-N′-phenyl-benzamidine] reads 254 to 255 °C; that for `Cc1ccccc1C(=NC(=Nc1ccccc1)N1CCCCC1C)Nc1ccc(F)cc1` (centres unmarked) (as salt: hydrochloride) [Example 28, N-(4-fluoro-phenyl)-2-methyl-N′-[(2-methyl-piperidin-1-yl)-phenylimino-methyl]-benzamidine], 173 to 175 °C. `Cc1ccccc1C(=Nc1ccccc1)NC(=Nc1ccc(F)cc1)N1CCC(O)CC1` (as salt: hydrochloride) [Example 29, N-[(4-fluoro-phenylimino)-(4-hydroxy-piperidin-1-yl)-methyl]-2-methyl-N′-phenyl-benzamidine] yielded a melting point of 224 to 225 °C.

As to `Clc1ccccc1C(=NC(=Nc1ccccc1)N1CCCC1)Nc1ccccc1` (as salt: hydrochloride) [Example 30, 2-chloro-N-phenyl-N′-(phenylimino-pyrrolidin-1-yl-methyl)-benzamidine], the melting point was 228 to 230 °C. The result for `Cc1ccccc1C(=Nc1ccc(F)cc1)NC(=Nc1ccccc1)N1CCCCCC1` (as salt: hydrochloride) [Example 34, N-(azepan-1-yl-phenylimino-methyl)-N′-(4-fluoro-phenyl)-2-methyl-benzamidine] reads 240 to 242 °C.

`Cc1cccc(C)c1C(=Nc1ccc(F)cc1)NC(=Nc1ccccc1)N1CCCCC1C` (centres unmarked) (as salt: hydrochloride) [Example 35, N-[(2,6-dimethyl-phenyl)-(4-fluoro-phenylimino)-methyl]-2-methyl-N′-phenyl-piperidine-1-carboxamidine]: the melting point is 181 to 183 °C.

In turn, `Cc1ccccc1C(=NC(=Nc1ccccc1F)N1CCC(O)CC1)Nc1ccc(F)cc1` (as salt: hydrochloride) [Example 36, N-(4-fluoro-phenyl)-N′-[(2-fluoro-phenylimino)-(4-hydroxy-piperidin-1-yl)-methyl]-2-methyl-benzamidine] displayed a melting point of 174 to 175 °C. Molecule `CC1CCCCN1C(=Nc1ccccc1)NC(=Nc1ccc(F)cc1)c1ccccc1Cl` (centres unmarked) (as salt: hydrochloride) [Example 37, N-[(2-chloro-phenyl)-(4-fluoro-phenylimino)-methyl]2-methyl-N′-phenyl-piperidine-1-carboxamidine] came in with a melting point of 145 to 147 °C.

`Cc1ccccc1C(=NC(=Nc1ccccc1)N1CCCCO1)Nc1ccc(F)cc1` (as salt: hydrochloride) [Example 42, N-(4-fluoro-phenyl)-2-methyl-N′-([1,2]oxazinan-2-yl-phenylimino-methyl)-benzamidine]: the melting point was 199 to 200 °C (dec.). With `Cc1cccc(C)c1C(=NC(=Nc1ccc(F)cc1)N1CCCCC1C)Nc1ccc(F)cc1` (centres unmarked) (as salt: hydrochloride) [Example 43, N-(4-fluoro-phenyl)-N′-[(4-fluoro-phenylimino)-(2-methyl-piperidin-1-yl)-methyl]-2,6-dimethyl-benzamidine] the figure was 162 to 164 °C (dec.); with `CC1CCCCN1C(N=C(Nc1ccc(F)cc1)c1c(Cl)cccc1Cl)=Nc1ccccc1` (centres unmarked) (as salt: hydrochloride) [Example 45, 2,6-dichloro-N-(4-fluoro-phenyl)-N′-[(2-methyl-piperidin-1-yl)-phenylimino-methyl]-benzamidine], 153 to 155 °C (dec.). With `Cc1cccc(C)c1C(=Nc1ccc(F)cc1)NC(=Nc1ccc(Cl)cc1)N1CCCCC1C` (centres unmarked) (as salt: hydrochloride) [Example 46, N-[(4-chloro-phenylimino)-(2-methyl-piperidin-1-yl)-methyl]-N′-(4-fluoro-phenyl)-2,6-dimethyl-benzamidine] the figure was 149 to 151 °C (dec.); with `Cc1ccccc1C(=Nc1ccc(F)cc1)NC(=Nc1ccccc1)C12CC3CC(CC(C3)C1)C2` (as salt: hydrochloride) [Example 47, N-(adamantan-1-yl-phenylimino-methyl)-N′-(4-fluoro-phenyl)-2-methyl-benzamidine], 219 to 221 °C. The result for `Cc1cccc(C)c1C(=Nc1ccc(F)cc1)NC(=Nc1ccccc1)N1C(C)CCCC1C` (centres unmarked) (as salt: hydrochloride) [Example 48, N-[(2,6-dimethyl-piperidin-1-yl)-phenylimino-methyl]-N′-(4-fluoro-phenyl)-2,6-dimethyl-benzamidine] reads 172 to 174 °C (dec.); that for `Cc1cccc(C)c1C(=Nc1ccc(F)cc1)NC(=Nc1ccc(F)cc1)N1CCCCCC1` (as salt: hydrochloride) [Example 49, N-[azepan-1-yl-(4-fluoro-phenylimino)-methyl]-N′-(4-fluoro-phenyl)-2,6-dimethyl-benzamidine], 155 to 157 °C; that for `Cc1cccc(C)c1C(=NC(=Nc1ccc(F)cc1)N1CCCCO1)Nc1ccc(F)cc1` (as salt: hydrochloride) [Example 50, N-(4-fluoro-phenyl)-N′-[(4-fluoro-phenylimino)-[1,2]oxazinan-2-yl-methyl]-2,6-dimethyl-benzamidine], 213 to 214 °C.

`Cc1cccc(C)c1C(=Nc1ccc(F)cc1)NC(=Nc1ccccc1)N1CCCCCC1` (as salt: hydrochloride) [Example 53, N-(azepan-1-yl-phenylimino-methyl)-N′-(4-fluoro-phenyl)-2,6-dimethyl-benzamidine] gave a melting point of 243 to 245 °C. As for `Fc1ccc(N=C(NC(=Nc2ccc(F)cc2)N2CCCCCC2)c2c(F)cccc2F)cc1` (as salt: hydrochloride) [Example 57, N-[azepan-1-yl-(4-fluoro-phenylimino)-methyl]-2,6-difluoro-N′-(4-fluoro-phenyl)-benzamidine], the melting point was in the range of 216 to 218 °C.

On to `CCC1CCCCN1C(=Nc1ccccc1)NC(=Nc1ccc(F)cc1)c1c(C)cccc1C` (centres unmarked) (as salt: hydrochloride) [Example 58, N-[(2-ethyl-piperidin-1-yl)-phenylimino-methyl]-N′-(4-fluoro-phenyl)-2,6-dimethyl-benzamidine], for which the melting point is 137 to 139 °C (dec.). The result for `Cc1cccc(C)c1C(=Nc1ccc(F)cc1)NC(=Nc1ccccc1)N1C(C)CCCC1C` (centres unmarked) (as salt: hydrochloride) [Example 59, N-[(2,6-dimethyl-piperidin-1-yl)-phenylimino-methyl]-N′-(4-fluoro-phenyl)-2,6-dimethyl-benzamidine] reads 165 to 167 °C (dec.); that for `COc1ccc(NC(=NC(=Nc2ccccc2)N2CCCCC2C)c2ccccc2C)cc1` (centres unmarked) (as salt: hydrochloride) [Example 60, N-(4-methoxy-phenyl)-2-methyl-N′-[(2-methyl-piperidin-1-yl)-phenylimino-methyl]-benzamidine], 162 to 164 °C (dec.). With `Cc1cccc(C)c1C(=NC(=Nc1ccccc1)N1CCCCO1)Nc1ccc(F)cc1` (as salt: hydrochloride) [Example 61, N-(4-fluoro-phenyl)-2,6-dimethyl-N′-([1,2]oxazinan-2-yl-phenylimino-methyl)-benzamidine] the figure was 212 to 214 °C (dec.).

The melting point is the temperature of the solid-liquid transition.

The record behind these values is US6911477B2, “Muscarinic receptor agonists” (Pfizer Inc., priority 1996, dated 2005).
